Source: patent publication US4260607A, “Cephalosporin esters” (Takeda Chemical Industries, Ltd., priority 1976, dated 1981)
≈ marks a conversion by molar mass, not a printed value. Structures can show the parent of a compound that is named as a salt.

Key:
[1] = in vivo, po; for Blood-level in rat, 0.5 hours: 30 min; for Blood-level in rat, 1 hour: 60 min; for Blood-level in rat, 2 hours: 120 min; for Hydrolysis of 4-position ester after absorption in blood: rat
K. pneumoniae DT = test: MIC, K. pneumoniae DT; type: cell-based; conditions: unit assumed
S. aureus 1840 = test: MIC, S. aureus 1840; type: cell-based; conditions: unit assumed
E. coli NIHJ JC-2 = test: MIC, E. coli NIHJ JC-2; type: cell-based; conditions: unit assumed
S. aureus 209P = test: MIC, S. aureus 209P; type: cell-based; conditions: unit assumed
E. coli 0-111 = test: MIC, E. coli 0-111; type: cell-based; conditions: unit assumed
P. vulgaris Eb. 58 = test: MIC, P. vulgaris Eb. 58; type: cell-based; conditions: unit assumed

Blood-level in rat, 0.5 hours ([1]; 100 mg/kg) [meg/ml] | Blood-level in rat, 1 hour ([1]; 100 mg/kg) [meg/ml] | Blood-level in rat, 2 hours ([1]; 100 mg/kg) [meg/ml] | Blood-level in rat, 4 hours ([1]; 100 mg/kg, 240 min) [meg/ml] | Structure (SMILES) | Hydrolysis of 4-position ester after absorption in blood [1] | MIC (K. pneumoniae DT) [µg/mL] | MIC (S. aureus 1840) [µg/mL] | MIC (E. coli NIHJ JC-2) [µg/mL] | MIC (S. aureus 209P) [µg/mL] | MIC (E. coli 0-111) [µg/mL] | MIC (P. vulgaris Eb. 58) [µg/mL]
32.4 | 28.3 | 21.0 | – | CCOC(=O)OC(C)OC(=O)C1=C(CSc2nnc(C)s2)CS[C@@H]2[C@H](NC(=O)Cc3csc(=N)[nH]3)C(=O)N12 (some centres unmarked) [Example 2] | hydrolyzed at 4-position carboxylic acid ester after being absorbed in blood | – | – | – | – | – | –
31.8 | 29.3 | 22.0 | 8.7 | Cc1nnc(SCC2=C(C(=O)OCOC(=O)C(C)(C)C)N3C(=O)[C@@H](NC(=O)Cc4csc(=N)[nH]4)[C@H]3SC2)s1 [Example 1, 7β-(2-imino-4-thiazolin-4-yl)acetamido-3-(5-methyl-1,3,4-thiadizolyl-2-yl)thiomethyl-3-cephem-4-pivaloyloxymethyl carboxylate hydrochloric acid salt] | hydrolyzed at 4-position carboxylic acid ester after being absorbed in blood | – | – | – | – | – | –
– | – | – | – | Cc1nnc(SCC2=C(C(=O)O)N3C(=O)[C@@H](NC(=O)Cc4csc(=N)[nH]4)[C@H]3SC2)s1 [Compound (A)] | – | 0.39 (≈ 0.805 µM) | 0.78 (≈ 1.61 µM) | 1.56 (≈ 3.22 µM) | 0.39 (≈ 0.805 µM) | 0.39 (≈ 0.805 µM) | 0.78 (≈ 1.61 µM)
– | – | – | – | CC1=C(C(=O)O)N2C(=O)[C@@H](NC(=O)[C@H](N)c3ccccc3)[C@H]2SC1 [Cephalexin, reference compound] | – | 6.25 (≈ 18 µM) | 12.5 (≈ 36 µM) | 12.5 (≈ 36 µM) | – | 12.5 (≈ 36 µM) | 12.5 (≈ 36 µM)
